Laboratory results taken from ChEMBL document CHEMBL1268944, “The antiplasmodial activity of norcantharidin analogs” (Bioorg Med Chem Lett, 2010).

What was measured:
[1] = system: Plasmodium falciparum; test: Antiplasmodial activity against chloroquine-sensitive Plasmodium falciparum D6 assessed as inhibition of parasite LDH activity after 72 hrs by malstat reagent method; assay type: functional, organism-based; settings: D6, 72 h
[2] = system: Plasmodium falciparum; test: Antiplasmodial activity against chloroquine-resistant Plasmodium falciparum W2 assessed as inhibition of parasite LDH activity […] after 72 hrs by malstat reagent method; assay type: functional, organism-based; settings: W2, 72 h
[3] = Inhibition of human PP2A
[4] = Inhibition of human PP1
[5] = species: Homo sapiens; test: Inhibition of human PP1 at 100 uM
[6] = species: Homo sapiens; test: Inhibition of human PP2A at 100 uM
[7] = Solubility of the compound in PP2A assay medium at 40 mM; assay type: physicochemical; settings: 40000 µM
[8] = Solubility of the compound in PP1 assay medium at 40 mM; assay type: physicochemical; settings: 40000 µM
[9] = Inhibition of human PP1 expressed in Escherichia coli BL21
[10] = Inhibition of human PP2A expressed in Escherichia coli BL21

Row | SMILES | IC50 [1] [µM] | IC50 [2] [µM] | IC50 [3] [µM] | IC50 [4] [µM] | other results
1 | CCCCCCCCN1C(=O)C2C(C1=O)[C@H]1CC[C@@H]2O1 (some centres undefined) | 225 | 250 |  |  | 
2 | O=C(O)C1C(C(=O)Nc2ccc(CO)cc2)[C@H]2CC[C@@H]1O2 (some centres undefined) | 160 | 163 | 7.2 | 15 | 
3 | O=C(O)C1C(C(=O)Nc2ccccc2O)[C@H]2CC[C@@H]1O2 (some centres undefined) | 385 | 380 |  |  | inhibition [5]: 33%; inhibition [6]: 9.8%
4 | CCCCCCNC(=O)C1C(C(=O)O)[C@@H]2CC[C@H]1O2 (some centres undefined) | > 500 | 390 | 13 | 35 | 
5 | CCN1C(=O)C2C(C1=O)[C@H]1CC[C@@H]2O1 (some centres undefined) | > 500 | > 500 |  |  | 
6 | O=C(O)CCCCCNC(=O)C1C(C(=O)O)[C@@H]2CC[C@H]1O2 (some centres undefined) | 260 | > 500 | 3.5 | 14 | 
7 | CC(C)(C)c1ccc(NC(=O)C2C(C(=O)O)[C@@H]3CC[C@H]2O3)cc1 (some centres undefined) | 405 | > 500 | 11 | 10 | 
8 | CC(CO)N1C(=O)C2C(C1=O)[C@H]1CC[C@@H]2O1 (some centres undefined) | > 500 | > 500 |  |  | 
9 | Cc1cccc(C)c1NC(=O)C1C(C(=O)O)[C@@H]2CC[C@H]1O2 (some centres undefined) | 306 | 290 |  |  | inhibition [5]: 68%; inhibition [6]: 24%
10 | O=C(O)C1C(C(=O)Nc2cccc(Cl)c2)[C@H]2CC[C@@H]1O2 (some centres undefined) | 250 | 185 | 14 | 31 | 
11 | COc1ccc(NC(=O)C2C(C(=O)O)[C@@H]3CC[C@H]2O3)cc1 (some centres undefined) | 500 | > 500 | 16 | 16 | 
12 | CC(C)(C)c1cc(NC(=O)C2C(C(=O)O)[C@@H]3CC[C@H]2O3)cc(C(C)(C)C)c1 (some centres undefined) | 59.3 | 176 | 8.2 | 8.2 | 
13 | O=C(O)C1C(C(=O)NCc2ccc(F)c(F)c2)[C@H]2CC[C@@H]1O2 (some centres undefined) | 473 | > 500 | 26 | 26 | 
14 | O=C(O)C1C(C(=O)Nc2cccc(I)c2)[C@H]2CC[C@@H]1O2 (some centres undefined) | 217 | 283 | 18 | 44 | 
15 | CC(C)C[C@@H](C(=O)O)N1C(=O)C2C(C1=O)[C@H]1CC[C@@H]2O1 (some centres undefined) | > 500 | > 500 |  |  | 
16 | Nc1ccccc1CN1C(=O)C2C(C1=O)[C@H]1CC[C@@H]2O1 (some centres undefined) | > 500 | > 500 |  |  | 
17 | O=C(O)C1C(C(=O)Nc2ccc(O)cc2)[C@H]2CC[C@@H]1O2 (some centres undefined) | 265 | 333 | 7.7 | 28 | 
18 | Cc1cccc(NC(=O)C2C(C(=O)O)[C@@H]3CC[C@H]2O3)c1C (some centres undefined) | 260 | 220 |  |  | inhibition [5]: 84%; inhibition [6]: 62%
19 | O=C(O)C1C(C(=O)Nc2ccccc2)[C@H]2CC[C@@H]1O2 (some centres undefined) | 300 | 363 | 7.7 | 24 | 
20 | CCCCCOc1ccc(NC(=O)C2C(C(=O)O)[C@@H]3CC[C@H]2O3)cc1 (some centres undefined) | 110 | 333 | 15 | 11 | 

Row | SMILES | IC50 [1] [µM] | IC50 [2] [µM] | IC50 [3] [µM] | IC50 [4] [µM] | other results
21 | CCCCNC(=O)C1C(C(=O)O)[C@@H]2CC[C@H]1O2 (some centres undefined) | > 500 | > 500 | 24 | 70 | 
22 | O=C1C2C(C(=O)N1CCN1CCOCC1)[C@H]1CC[C@@H]2O1 (some centres undefined) | > 500 | > 500 |  |  | 
23 | O=C(O)C1C(C(=O)NCCc2cnc[nH]2)[C@H]2CC[C@@H]1O2 (some centres undefined) | 307 | 267 |  |  | inhibition [5]: 35%; inhibition [6]: 26%
24 | O=C(O)C1C(C(=O)Nc2ccccc2CO)[C@H]2CC[C@@H]1O2 (some centres undefined) | 275 | 333 |  |  | inhibition [5]: 84%; inhibition [6]: 30%
25 | CCCCN1C(=O)C2C(C1=O)[C@H]1CC[C@@H]2O1 (some centres undefined) | 8.9 | 12.5 |  |  | 
26 | CSc1ccccc1NC(=O)C1C(C(=O)O)[C@@H]2CC[C@H]1O2 (some centres undefined) | 340 | > 500 |  |  | inhibition [5]: 76%; inhibition [6]: 58%
27 | O=C(O)C1C(C(=O)NCCN2CCOCC2)[C@H]2CC[C@@H]1O2 (some centres undefined) | > 500 | > 500 | 43 | 30 | 
28 | CC(C)(C)c1ccccc1NC(=O)C1C(C(=O)O)[C@@H]2CC[C@H]1O2 (some centres undefined) | > 500 | > 500 |  |  | inhibition [5]: 9%; inhibition [6]: 16%
29 | CCCNC(=O)C1C(C(=O)O)[C@@H]2CC[C@H]1O2 (some centres undefined) | > 500 | > 500 | 18 | 46 | 
30 | Cc1cc(C)c(NC(=O)C2C(C(=O)O)[C@@H]3CC[C@H]2O3)c(C)c1 (some centres undefined) | 340 | > 500 |  |  | inhibition [5]: 63%; inhibition [6]: 23%
31 | O=C1C2C(C(=O)N1CCCCCCO)[C@H]1CC[C@@H]2O1 (some centres undefined) | > 500 | > 500 |  |  | 
32 | CCCCCCCCCCCCNC(=O)C1C(C(=O)O)[C@@H]2CC[C@H]1O2 (some centres undefined) | 70 | 106 |  |  | solubility [7]: Insoluble; solubility [8]: Insoluble
33 | O=C(O)C1C(C(=O)NCCc2ccccc2)[C@H]2CC[C@@H]1O2 (some centres undefined) | 243 | 300 | 29 | 33 | 
34 | CCCCCCCCCCN1C(=O)C2C(C1=O)[C@H]1CC[C@@H]2O1 (some centres undefined) | 375 | 141 |  |  | 
35 | O=C(O)C1C(C(=O)NCc2ccc(C(F)(F)F)cc2)[C@H]2CC[C@@H]1O2 (some centres undefined) | 248 | 433 | 20 | 16 | 
36 | O=C(O)C1C(C(=O)Nc2cccc(CO)c2)[C@H]2CC[C@@H]1O2 (some centres undefined) | 440 | 390 | 7 | 15 | 
37 | O=C(O)C1C(C(=O)NCCCc2ccccc2)[C@H]2CC[C@@H]1O2 (some centres undefined) | 383 | 230 | 25 | 25 | 
38 | O=C(O)C1C(C(=O)Nc2ccc3ccccc3c2)[C@H]2CC[C@@H]1O2 (some centres undefined) | 280 | 257 | 15 | 14 | 
39 | CSc1ccc(NC(=O)C2C(C(=O)O)[C@@H]3CC[C@H]2O3)cc1 (some centres undefined) | > 500 | > 500 | 14 | 10 | 
40 | CCCCCCN1C(=O)C2C(C1=O)[C@H]1CC[C@@H]2O1 (some centres undefined) | 175 | 90 |  |  | 

Row | SMILES | IC50 [1] [µM] | IC50 [2] [µM] | IC50 [3] [µM] | IC50 [4] [µM] | other results
41 | O=C(O)[C@@H]1[C@H](C(=O)O)[C@H]2CC[C@@H]1O2 [ENDOTHALL] |  |  |  |  | IC50 [9]: 4 µM; IC50 [10]: 0.09 µM
42 | C=Cc1ccc(NC(=O)C2C(C(=O)O)[C@@H]3CC[C@H]2O3)cc1 (some centres undefined) | > 500 | 400 | 11 | 23 | 
43 | NCCCN1C(=O)C2C(C1=O)[C@H]1CC[C@@H]2O1 (some centres undefined) | > 500 | > 500 |  |  | 
44 | C#Cc1cccc(NC(=O)C2C(C(=O)O)[C@@H]3CC[C@H]2O3)c1 (some centres undefined) | 193 | 194 | 16 | 20 | 
45 | O=C(O)C1C(C(=O)Nc2cccc3ccccc23)[C@H]2CC[C@@H]1O2 (some centres undefined) | 210 | 193 |  |  | inhibition [5]: 79%; inhibition [6]: 73%
46 | COc1ccc(CNC(=O)C2C(C(=O)O)[C@@H]3CC[C@H]2O3)cc1 (some centres undefined) | > 500 | > 500 | 13 | 35 | 
47 | COc1ccc(CN2C(=O)C3C(C2=O)[C@H]2CC[C@@H]3O2)cc1 (some centres undefined) | 24 | 25 |  |  | 
48 | CCC(C)N1C(=O)C2C(C1=O)[C@H]1CC[C@@H]2O1 (some centres undefined) | 225 | 125 |  |  | 
49 | C=CCCNC(=O)C1C(C(=O)O)[C@@H]2CC[C@H]1O2 (some centres undefined) | > 500 | > 500 |  |  | solubility [7]: Insoluble; solubility [8]: Insoluble
50 | O=C(O)CCCNC(=O)C1C(C(=O)O)[C@@H]2CC[C@H]1O2 (some centres undefined) | > 500 | > 500 | 3.3 | 15 | 
51 | O=C(O)C1C(C(=O)Nc2ccc([N+](=O)[O-])cc2)[C@H]2CC[C@@H]1O2 (some centres undefined) | > 500 | 393 | 23 | 74 | 
52 | CCc1ccccc1NC(=O)C1C(C(=O)O)[C@@H]2CC[C@H]1O2 (some centres undefined) | 360 | 400 | 24 | 51 | 
53 | CC(C)(C)c1ccc(C(C)(C)C)c(NC(=O)C2C(C(=O)O)[C@@H]3CC[C@H]2O3)c1 (some centres undefined) | 40 | 205 |  |  | solubility [7]: Insoluble; solubility [8]: Insoluble
54 | O=C1C2C(C(=O)N1N1CCOCC1)[C@H]1CC[C@@H]2O1 (some centres undefined) | > 500 | > 500 |  |  | 
55 | O=C(O)C1C(C(=O)N2CCSCC2)[C@H]2CC[C@@H]1O2 (some centres undefined) | 250 | 204 | 5.1 | 3.2 | 
56 | CC(C)(CO)N1C(=O)C2C(C1=O)[C@H]1CC[C@@H]2O1 (some centres undefined) | > 500 | > 500 |  |  | 
57 | O=C1C2C(C(=O)N1C1CCCCC1)[C@H]1CC[C@@H]2O1 (some centres undefined) | 140 | 55 |  |  | 
58 | O=C(O)C1C(C(=O)Nc2ccc(I)cc2)[C@H]2CC[C@@H]1O2 (some centres undefined) | 230 | 248 | 14 | 33 | 
59 | CCCN1C(=O)C2C(C1=O)[C@H]1CC[C@@H]2O1 (some centres undefined) | > 500 | > 500 |  |  | 
60 | CCCCCCOc1ccc(NC(=O)C2C(C(=O)O)[C@@H]3CC[C@H]2O3)cc1 (some centres undefined) | 130 | 70 | 20 | 60 | 
